Assay [1] has as its system hair follicle epithelial cell cultures. Briefly: Limiting dilution cloning of hair follicle epithelial cells with and without purine supplementation. Type of assay: cell-based, mouse. The settings on record: for Cell clone efficiency, Cloning Condition Purine-supplemented (positive wells/total wells) / Cell clone efficiency, Cloning Condition Purine-free (positive wells/total wells): limiting dilution in 96 well plates; for Cell clone efficiency, Cloning Condition Purine-supplemented (positive wells/total wells): cloned in the presence of the purine used for initial outgrowth (400 uM); for Cell clone efficiency, Cloning Condition Purine-free (positive wells/total wells): cultures grown out with 400 uM purine, cloned without purine. The text has this:
After outgrowth of the follicle epithelial cells, cultures were trypsinized to harvest cells for secondary culture. […] In this manner, purine metabolite-dependent clonal expansion was verified. […] Seventeen Xn-derived clones were transferred to 24-well plates, and 15 survived expansion to full scale cultures for cryo-preservation.

The subject of assay [2] is adult stem cell-enriched populations from skeletal muscle, pancreas or small intestinal epithelium of XPRT-transgenic mice. Put plainly: Proliferation of adult stem cell-enriched populations explanted from XPRT-transgenic mice in xanthine-supplemented medium. It counts as cell-based, mouse. To be noted: cells explanted from XPRT-transgenic mice. From the text: We have generated transgenic mice ubiquitously expressing the xanthine phosphoribosyltransferase (XPRT) gene. We used the gene encoding for XPRT from the protozoan Leismania donovani. The XPRT enzyme can convert Xanthine into xanthosine monophosphate, the critical precursor for cellular guanine nucleotides. This enzyme has no mammalian counterpart and its substrate can enter the cell via ubiquitously expressed nucleobase transporters. Therefore, we can control the kinetics of adult stem cells expressing XPRT by supplementing with or depriving the culture medium of xanthine. In the presence of xanthine, XPRT-expressing cells increase their cellular level of guanine nucleotides independently of their normal endogenous pathway involving the conversion of inosine monophosphate to xanthosine monophosphate by the enzyme inosine monophosphate dehydrogenase.
We have generated transgenic mice ubiquitously expressing the XPRT gene under the control of the chicken β-actin/CMV enhancer. […] We have also shown that the culture of pancreatic cells from one of the transgenic lines gives rise to clusters of small cells with large nuclei. This feature is typical of ductal cells, from which a subset is believed to correspond to the pancreatic adult stem cells. […]

Assay [3] has as its system mouse whisker follicle epithelial cells. Put plainly: Outgrowth and cell counts of purine-supplemented mouse whisker hair follicle cultures. Type of assay: cell-based. The settings on record: 400 uM purine.
From the text: Intact mouse whisker hair follicles were dissected from the skin under sterile conditions. The hair shaft was resected at its point of exit from the follicle. The intact follicle was then digested with trypsin, repeatedly washed, and filtered with a nylon mesh to remove external cells that adhere to the follicle capsule. The follicle was then opened with a single longitudinal incision and place in culture medium supplemented with 10% dialyzed fetal bovine serum, epidermal growth factor, and one of three different purine nucleoside metabolites (Hypoxyanthine, xanthosine, or xanthine) each supplemented to 400 uM.
Confluent primary cultures were transferred into to 25-cm^2 flasks. Seven days after this transfer, cell counts were performed before transferring cultures to 75-cm^2 flasks.

As to `O=c1[nH]c(=O)c2ncn([C@@H]3O[C@H](CO)[C@@H](O)[C@H]3O)c2[nH]1` [Xs, xanthosine], in assay [1], the “Cell clone efficiency, Cloning Condition Purine-supplemented (positive wells/total wells)” value is 1/480 and the “Cell clone efficiency, Cloning Condition Purine-free (positive wells/total wells)” value is listed as 0/96.

As to `O=c1[nH]c(=O)c2[nH]cnc2[nH]1` [Xn, xanthine], the “Yield of cell clones and dependence on the purine” value in assay [1] (limiting dilution cloning, summary of Table 1) is recorded as “significant number of cell clones with a marked dependence on Xn”. Also, in assay [1], the “Cell clone efficiency, Cloning Condition Purine-supplemented (positive wells/total wells)” value is given as 50/480 and the “Cell clone efficiency, Cloning Condition Purine-free (positive wells/total wells)” value is reported as 4/96. Also, the “Proliferation in xanthine-supplemented culture medium” value in assay [2] is recorded as “enhanced proliferation”. The “Promotion of enhanced growth of mouse whisker follicle epithelial cells (comparison of purines)” value in assay [3] was “worked the best”. Moreover, the “Order of reaching confluency of primary cultures” value in assay [3] (three hair follicles in one well of a 24-well plate) was “reached confluency first”.

Take `O=c1[nH]cnc2nc[nH]c12` [Hx, hypoxanthine]: in assay [1], the “Cell clone efficiency, Cloning Condition Purine-supplemented (positive wells/total wells)” value is listed as 6/480 and the “Cell clone efficiency, Cloning Condition Purine-free (positive wells/total wells)” value is 0/96.
